Reference: the supplement of paper PMC11208160

experiment: recombinant UMI read abundance after kanamycin selection (control-corrected) (log10(CPM+1)); higher = more efficient recombination; extreme values may be limits of the assay; sequences stand for … in AGTGCAGAGAAAATCGGCCAGTTTTCTCTGCCTGCAGTCCGCATGCCGTGGGACCCCTTGGGTTCTAACCTGTTGCCTAGATTTATGCAGCGGACTGCCTTTCTCCCAAAGTGATAAACCGG…AGGTTGGTTTCACT; site = the 11-nt donor
Outline: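 Each donor and donor-binding-loop pair was tracked by a 12-nt UMI on a plasmid carrying a promoterless kanamycin gene. With a second plasmid supplying a fixed target and T7-inducible IS621 bridge recombinase, the pool was plated in Escherichia coli on IPTG (0.07 mM) plus kanamycin or unselected. Sequencing of recombinant UMIs across the donor–target junction gave counts expressed as log10(CPM+1) after replicate averaging and control-derived scaling.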
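Note: IS621 bridge recombinase in Escherichia coli cells against a fixed T5 target plasmid.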

Sequence | recombinant UMI read abundance (log10)
CGTGGACCATGGACCGGTTTTCCCGGTAATCCGTATTTGGG (site CGTGGACCTCC) | 0.0154
CGTGGGACATGGACCGGTTTTCCCGGTAATCCGTATTTGTT (site CGTGGAACTAA) | 1.86
CGTGGGACATGGACCGGTTTTCCCGGTAATCCGTATTTGTT (site CGTGGCACTAA) | 0.0102
CGTGGGACATGGACCGGTTTTCCCGGTAATCCGTATTTGTT (site CGTGGGACTAA) | 1.79
CGTGGGACATGGACCGGTTTTCCCGGTAATCCGTATTTGTT (site CGTGGTACTAA) | 0
CGTGGTTCATGGACCGGTTTTCCCGGTAATCCGTATTTGCG (site CGTGGTTCTCG) | 2.1
CGTGTAACATGGACCGGTTTTCCCGGTAATCCGTATTTGCG (site CGTGTAACTCG) | 1.78
CGTGTCACATGGACCGGTTTTCCCGGTAATCCGTATTTGGT (site CGTGTCACTAC) | 1.31
CGTGTCGCATGGACCGGTTTTCCCGGTAATCCGTATTTGTG (site CGTGTCGCTCA) | 0.701
CGTGTGTCATGGACCGGTTTTCCCGGTAATCCGTATTTGGA (site CGTGTGTCTTC) | 1.86
CGTTAGACATGGACCGGTTTTCCCGGTAATCCGTATTTGCG (site CGTTAGACTCA) | 0.0494
CGTTAGACATGGACCGGTTTTCCCGGTAATCCGTATTTGCG (site CGTTAGACTCC) | 0.0162
CGTTAGACATGGACCGGTTTTCCCGGTAATCCGTATTTGCG (site CGTTAGACTCG) | 1.85
CGTTAGACATGGACCGGTTTTCCCGGTAATCCGTATTTGCG (site CGTTAGACTCT) | 0.911
CGTTAGCCATGGACCGGTTTTCCCGGTAATCCGTATTTGAG (site CGTTAGACTCT) | 0.00766
CGTTAGCCATGGACCGGTTTTCCCGGTAATCCGTATTTGAG (site CGTTAGCCTCT) | 0.184
CGTTAGCCATGGACCGGTTTTCCCGGTAATCCGTATTTGAG (site CGTTAGGCTCT) | 0.00758
CGTTAGCCATGGACCGGTTTTCCCGGTAATCCGTATTTGAG (site CGTTAGTCTCT) | 0.737
CGTTATACATGGACCGGTTTTCCCGGTAATCCGTATTTGAG (site CGTTAAACTCT) | 0

Sequence | recombinant UMI read abundance (log10)
CGTTATACATGGACCGGTTTTCCCGGTAATCCGTATTTGAG (site CGTTACACTCT) | 0.0313
CGTTATACATGGACCGGTTTTCCCGGTAATCCGTATTTGAG (site CGTTAGACTCT) | 0.0101
CGTTATACATGGACCGGTTTTCCCGGTAATCCGTATTTGAG (site CGTTATACTCT) | 1.25
CGTTATCCATGGACCGGTTTTCCCGGTAATCCGTATTTGTC (site CGTTATCCTGA) | 1.46
CGTTCATCATGGACCGGTTTTCCCGGTAATCCGTATTTGCC (site CGATCATCTAG) | 0
CGTTCATCATGGACCGGTTTTCCCGGTAATCCGTATTTGCC (site CGTTCATCTGG) | 2.32
CGTTCATCATGGACCGGTTTTCCCGGTAATCCGTATTTGTG (site CGTTCATCTCA) | 0.00491
CGTTCCCCATGGACCGGTTTTCCCGGTAATCCGTATTTGTG (site CGTTCCCCTCA) | 0.365
CGTTCGACATGGACCGGTTTTCCCGGTAATCCGTATTTGTT (site CGATCGACTAA) | 0.0104
CGTTCGACATGGACCGGTTTTCCCGGTAATCCGTATTTGTT (site CGCTCGACTAA) | 0.0144
CGTTCGACATGGACCGGTTTTCCCGGTAATCCGTATTTGTT (site CGGTCGACTAA) | 0.0244
CGTTCGACATGGACCGGTTTTCCCGGTAATCCGTATTTGTT (site CGTTCGACTAA) | 0.0172
CGTTCGTCATGGACCGGTTTTCCCGGTAATCCGTATTTGCT (site CGATCATCTAG) | 0
CGTTCGTCATGGACCGGTTTTCCCGGTAATCCGTATTTGCT (site CGTTCGTCTAG) | 1.95
CGTTGAACATGGACCGGTTTTCCCGGTAATCCGTATTTGTT (site CGTAGAACTAA) | 0.00276
CGTTGAACATGGACCGGTTTTCCCGGTAATCCGTATTTGTT (site CGTCGAACTAA) | 0.0175
CGTTGAACATGGACCGGTTTTCCCGGTAATCCGTATTTGTT (site CGTGGAACTAA) | 0.0247
CGTTGAACATGGACCGGTTTTCCCGGTAATCCGTATTTGTT (site CGTTGAACTAA) | 0.623
CGTTGTGCATGGACCGGTTTTCCCGGTAATCCGTATTTGAG (site CGTTGTGCTCT) | 1.77

Sequence | recombinant UMI read abundance (log10)
CGTTTGGCATGGACCGGTTTTCCCGGTAATCCGTATTTGCC (site CGTTTGGCTAG) | 0
CGTTTGGCATGGACCGGTTTTCCCGGTAATCCGTATTTGCC (site CGTTTGGCTCG) | 0.0176
CGTTTGGCATGGACCGGTTTTCCCGGTAATCCGTATTTGCC (site CGTTTGGCTGG) | 0
CGTTTGGCATGGACCGGTTTTCCCGGTAATCCGTATTTGCC (site CGTTTGGCTTG) | 0
CTAATAGCATGGACCGGTTTTCCCGGTAATCCGTATTTGAT (site CTAATAGCTAT) | 2.21
CTAATATCATGGACCGGTTTTCCCGGTAATCCGTATTTGTC (site CTAATATCTGA) | 2.49
CTAATATCATGGACCGGTTTTCCCGGTAATCCGTATTTGTC (site CTAGTATCTGT) | 1.1
CTAATCTCATGGACCGGTTTTCCCGGTAATCCGTATTTGAC (site CTAATCTCTGT) | 2.44
CTAATCTCATGGACCGGTTTTCCCGGTAATCCGTATTTGAC (site CTAGTATCTGT) | 0
CTAATTACATGGACCGGTTTTCCCGGTAATCCGTATTTGCA (site CTAATTACTTG) | 2.07
CTACAAACATGGACCGGTTTTCCCGGTAATCCGTATTTGGA (site CTACAAACTTC) | 1.28
CTACAAACATGGACCGGTTTTCCCGGTAATCCGTATTTGGA (site CTACCAACTTC) | 0.0174
CTACAAACATGGACCGGTTTTCCCGGTAATCCGTATTTGGA (site CTACGAACTTC) | 0.0102
CTACAAACATGGACCGGTTTTCCCGGTAATCCGTATTTGGA (site CTACTAACTTC) | 0.313
CTACCATCATGGACCGGTTTTCCCGGTAATCCGTATTTGGT (site CTACCATCTAC) | 0.00462
CTACGAACATGGACCGGTTTTCCCGGTAATCCGTATTTGGA (site CTACAAACTTC) | 1.46
CTACGAACATGGACCGGTTTTCCCGGTAATCCGTATTTGGA (site CTACCAACTTC) | 0.0142
CTACGAACATGGACCGGTTTTCCCGGTAATCCGTATTTGGA (site CTACGAACTTC) | 1.91
CTACGAACATGGACCGGTTTTCCCGGTAATCCGTATTTGGA (site CTACTAACTTC) | 0.113
